Laboratory results taken from patent publication US8871753B2, “Macrocyclic compounds and their use as kinase inhibitors” (Incyte Corporation, priority 2008, dated 2014).
Counter-ions that a name gives are not always drawn. Like-named read-outs stand apart in the source and are kept apart here.

Assays:
Type in all cases: biochemical
[1] = target: T1, human JAK1 (a.a. 837-1142) (Homo sapiens, UniProt P23458); test: In vitro JAK kinase assay (HTRF, phosphorylation of a biotinylated peptide), JAK1; conditions: read-out: JAK1 IC50
T1 construct: human JAK1 (a.a. 837-1142); His tag (N); made in house; host or cells: insect cells (baculovirus)
T1 sequence (P23458 849-1154): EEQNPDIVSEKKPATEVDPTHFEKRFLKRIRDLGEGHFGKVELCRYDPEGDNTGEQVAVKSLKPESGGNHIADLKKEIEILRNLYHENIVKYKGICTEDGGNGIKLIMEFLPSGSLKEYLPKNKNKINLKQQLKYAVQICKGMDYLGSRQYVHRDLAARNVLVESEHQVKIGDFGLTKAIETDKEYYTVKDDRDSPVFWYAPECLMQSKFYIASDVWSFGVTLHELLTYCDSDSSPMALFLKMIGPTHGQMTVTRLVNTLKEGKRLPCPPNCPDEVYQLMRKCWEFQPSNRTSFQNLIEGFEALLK
In short: (§1)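 Kinase reactions ran at room temperature for 1 h with ATP matched per isoform (JAK1 90 μM, JAK2 30 μM, JAK3 3 μM). After an EDTA stop, the phosphorylated biotin-peptide was read by HTRF using Eu-Py20 and SA-APC after 40 min binding.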

[2] = target: T2, human JAK2 (a.a. 828-1132) (Homo sapiens, UniProt O60674); test: In vitro JAK kinase assay (HTRF, phosphorylation of a biotinylated peptide), JAK2
T2 construct: JAK2 (a.a. 828-1132); His tag (N); made in house; host or cells: insect cells (baculovirus)
T2 sequence (O60674 828-1132): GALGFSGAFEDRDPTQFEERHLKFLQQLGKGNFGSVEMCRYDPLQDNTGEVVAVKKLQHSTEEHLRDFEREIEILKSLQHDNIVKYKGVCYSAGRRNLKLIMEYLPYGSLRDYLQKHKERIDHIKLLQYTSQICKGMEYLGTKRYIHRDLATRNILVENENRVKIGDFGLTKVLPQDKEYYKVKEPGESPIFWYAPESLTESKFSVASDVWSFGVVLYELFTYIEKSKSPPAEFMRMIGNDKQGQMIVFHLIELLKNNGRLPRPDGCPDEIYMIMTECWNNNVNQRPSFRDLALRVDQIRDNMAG
In short: as §1

[3] = target: T3, human JAK3 (a.a. 781-1124) (Homo sapiens, UniProt P52333); test: In vitro JAK kinase assay (HTRF, phosphorylation of a biotinylated peptide), JAK3
T3 construct: JAK3 (a.a. 781-1124); His tag (N); made in house; host or cells: insect cells (baculovirus)
T3 sequence (P52333 781-1124): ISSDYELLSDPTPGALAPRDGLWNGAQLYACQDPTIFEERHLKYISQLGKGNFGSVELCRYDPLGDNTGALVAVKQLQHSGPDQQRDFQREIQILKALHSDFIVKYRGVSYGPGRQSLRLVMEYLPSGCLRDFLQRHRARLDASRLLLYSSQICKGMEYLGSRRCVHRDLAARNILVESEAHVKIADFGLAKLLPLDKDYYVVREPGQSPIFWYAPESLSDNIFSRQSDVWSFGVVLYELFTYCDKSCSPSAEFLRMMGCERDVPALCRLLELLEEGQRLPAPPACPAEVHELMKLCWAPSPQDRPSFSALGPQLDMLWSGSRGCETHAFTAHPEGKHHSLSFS
In short: as §1

TYK2 = TYK2 (Homo sapiens, UniProt P29597); test: TYK2 kinase inhibition (Table A1)
TYK2, sequence (P29597 whole entry): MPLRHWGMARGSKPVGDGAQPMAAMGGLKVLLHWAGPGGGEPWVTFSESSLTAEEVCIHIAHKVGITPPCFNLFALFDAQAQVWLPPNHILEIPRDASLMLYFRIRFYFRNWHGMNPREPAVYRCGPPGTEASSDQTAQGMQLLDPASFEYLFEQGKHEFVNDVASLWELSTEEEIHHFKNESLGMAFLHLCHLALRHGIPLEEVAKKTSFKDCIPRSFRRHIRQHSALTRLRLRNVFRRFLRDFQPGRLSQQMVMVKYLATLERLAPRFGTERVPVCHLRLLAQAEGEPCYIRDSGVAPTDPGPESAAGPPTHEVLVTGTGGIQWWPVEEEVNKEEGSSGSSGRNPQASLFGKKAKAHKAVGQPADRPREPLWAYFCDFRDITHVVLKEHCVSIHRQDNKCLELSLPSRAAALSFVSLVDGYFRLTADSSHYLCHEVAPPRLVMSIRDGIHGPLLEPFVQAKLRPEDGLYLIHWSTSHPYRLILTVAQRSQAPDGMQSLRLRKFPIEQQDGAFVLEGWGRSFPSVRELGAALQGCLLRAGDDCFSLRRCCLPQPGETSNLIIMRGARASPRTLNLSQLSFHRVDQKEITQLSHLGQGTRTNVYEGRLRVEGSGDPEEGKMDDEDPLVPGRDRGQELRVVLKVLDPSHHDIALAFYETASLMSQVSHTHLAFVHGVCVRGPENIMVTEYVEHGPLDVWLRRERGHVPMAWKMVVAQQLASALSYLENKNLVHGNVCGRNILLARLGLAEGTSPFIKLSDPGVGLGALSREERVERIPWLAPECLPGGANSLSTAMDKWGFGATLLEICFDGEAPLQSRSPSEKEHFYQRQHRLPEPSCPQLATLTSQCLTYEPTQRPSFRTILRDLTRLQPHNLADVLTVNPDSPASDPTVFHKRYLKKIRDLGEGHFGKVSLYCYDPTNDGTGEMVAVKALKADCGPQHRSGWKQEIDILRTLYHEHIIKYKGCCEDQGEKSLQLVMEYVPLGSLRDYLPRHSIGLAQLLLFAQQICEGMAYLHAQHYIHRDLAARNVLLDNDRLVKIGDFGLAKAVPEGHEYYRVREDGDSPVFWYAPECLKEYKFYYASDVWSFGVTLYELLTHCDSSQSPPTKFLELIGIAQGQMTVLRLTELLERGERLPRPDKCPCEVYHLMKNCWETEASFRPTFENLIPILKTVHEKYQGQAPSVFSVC

[4] = target: T4, Recombinant Human Anaplastic Lymphoma Kinase (Homo sapiens, UniProt Q9UM73); test: ALK HTRF kinase assay
T4 construct: purchased Invitrogen, Carlsbad, Calif
T4 sequence (Q9UM73 19-1620): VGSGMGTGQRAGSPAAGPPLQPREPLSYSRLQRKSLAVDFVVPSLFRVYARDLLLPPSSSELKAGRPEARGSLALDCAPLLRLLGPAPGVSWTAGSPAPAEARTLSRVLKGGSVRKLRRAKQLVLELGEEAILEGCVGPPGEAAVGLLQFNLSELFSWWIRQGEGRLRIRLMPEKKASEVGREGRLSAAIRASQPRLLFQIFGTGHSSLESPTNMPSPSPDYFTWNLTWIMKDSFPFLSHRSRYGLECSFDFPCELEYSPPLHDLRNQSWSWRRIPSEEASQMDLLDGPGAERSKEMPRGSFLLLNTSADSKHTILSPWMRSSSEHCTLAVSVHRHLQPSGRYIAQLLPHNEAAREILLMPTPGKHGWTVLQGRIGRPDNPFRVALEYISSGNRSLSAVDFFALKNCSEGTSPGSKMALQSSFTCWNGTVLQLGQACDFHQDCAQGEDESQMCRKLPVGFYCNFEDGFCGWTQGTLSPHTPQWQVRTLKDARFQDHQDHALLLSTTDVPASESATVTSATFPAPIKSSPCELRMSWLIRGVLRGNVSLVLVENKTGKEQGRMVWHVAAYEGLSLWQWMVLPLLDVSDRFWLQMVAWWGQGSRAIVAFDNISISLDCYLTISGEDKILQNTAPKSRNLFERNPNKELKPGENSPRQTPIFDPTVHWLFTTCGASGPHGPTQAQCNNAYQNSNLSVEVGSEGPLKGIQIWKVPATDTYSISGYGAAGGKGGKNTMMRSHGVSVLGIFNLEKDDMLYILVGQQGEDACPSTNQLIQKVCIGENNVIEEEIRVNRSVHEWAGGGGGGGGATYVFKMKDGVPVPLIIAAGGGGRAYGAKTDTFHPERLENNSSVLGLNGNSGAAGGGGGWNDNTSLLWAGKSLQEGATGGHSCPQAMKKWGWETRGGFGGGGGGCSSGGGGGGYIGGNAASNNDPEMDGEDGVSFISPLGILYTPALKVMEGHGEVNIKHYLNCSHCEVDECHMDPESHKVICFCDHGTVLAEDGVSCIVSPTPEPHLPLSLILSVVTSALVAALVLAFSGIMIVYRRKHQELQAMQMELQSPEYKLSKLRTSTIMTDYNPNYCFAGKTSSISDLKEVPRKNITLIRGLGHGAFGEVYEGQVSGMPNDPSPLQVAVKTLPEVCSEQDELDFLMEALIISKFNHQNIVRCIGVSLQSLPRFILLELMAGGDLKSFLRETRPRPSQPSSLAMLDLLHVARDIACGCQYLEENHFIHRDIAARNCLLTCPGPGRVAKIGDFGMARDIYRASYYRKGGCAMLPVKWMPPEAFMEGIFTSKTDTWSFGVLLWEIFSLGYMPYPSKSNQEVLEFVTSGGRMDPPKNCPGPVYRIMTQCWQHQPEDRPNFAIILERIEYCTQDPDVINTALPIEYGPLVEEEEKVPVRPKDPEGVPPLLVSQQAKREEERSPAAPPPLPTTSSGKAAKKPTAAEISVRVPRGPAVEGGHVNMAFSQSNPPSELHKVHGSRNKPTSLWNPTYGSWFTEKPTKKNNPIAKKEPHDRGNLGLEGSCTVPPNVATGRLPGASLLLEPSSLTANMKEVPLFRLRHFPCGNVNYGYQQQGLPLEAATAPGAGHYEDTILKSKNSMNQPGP
In short: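 Kinase activity of the recombinant human protein is measured on a biotinylated peptide, with a Eu-W1024 anti-phosphotyrosine antibody and streptavidin-allophycocyanin generating the homogeneous time-resolved fluorescence signal. Inhibition curves are fitted to yield IC50.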

[5] = percentage inhibition of the example compound at a concentration of 500 nM or 1 mM (not specified which)
[6] = method AA1 (90 μM ATP) or AA2 (1000 μM ATP), not stated per value
[7] = method AA1 (30 μM ATP) or AA2 (1000 μM ATP), not stated per value
[8] = method AA1 (3 μM ATP) or AA2 (1000 μM ATP), not stated per value
[9] = compound at 500 nM or 1 mM, 90 μM ATP
[10] = compound at a concentration of 500 nM or 1 mM (not specified), cells shown as percentage

IC50 ([1]; Table B1) | IC50 ([2]; Table B1) | IC50 ([3]; Table B1) | IC50 (TYK2; Table B1) | IC50 [1, 6] | IC50 [2, 7] | IC50 [3, 8] | IC50 (TYK2) | ALK % of inhibition at a concentration of 500 nM or 1 mM [4, 9] | SMILES | also measured
45 nM | 77 nM | > 200 nM | > 200 nM | – | – | – | – | – | Cc1cc(C(=O)N2CCC(C(=O)N(C)Cc3ccc4cc3CCc3cncc(c3)Nc3ncc(Cl)c(n3)N4)CC2)no1 [Example B335, N-{[6-Chloro-2,4,8,18,22-pentaazatetracyclo[14.3.1.1(3,7).1(9,13)]docosa-1(20),3(22),4,6,9(21),10,12,16,18-nonaen-12-yl]methyl}-N-methyl-1-[(5-methylisoxazol-3-yl)carbonyl]piperidine-4-carboxamide bis(trifluoroacetate)] | ALK % of inhibition at a concentration of 500 nM or 1 mM [4, 5]: 18%
0.54 nM | 0.24 nM | 1.1 nM | 0.97 nM | – | – | – | – | – | O=S(=O)(Nc1ccc2cc1CCc1cccc(c1)Nc1ncc(Cl)c(n1)N2)c1cccc(C(F)(F)F)c1 [Example B163, N-[6-Chloro-2,4,8,22-tetraazatetracyclo[14.3.1.1(3,7).1(9,13)]docosa-1(20), 3(22),4,6,9(21),10,12,16,18-nonaen-12-yl]-3-(trifluoromethyl)benzenesulfonamide trifluoroacetate] | ALK % of inhibition at a concentration of 500 nM or 1 mM [4, 10]: 80%
7 nM | 11 nM | 102 nM | 24 nM | – | – | – | – | – | O=C(Nc1ccc2cc1CCc1cccc(c1)Nc1ncc(Cl)c(n1)N2)N[C@H]1CCN(C(=O)c2ccccn2)C1 [Example B233, N-[6-Chloro-2,4,8,22-tetraazatetracyclo[14.3.1.1(3,7).1(9,13)]docosa-1(20),3(22),4,6,9(21),10,12,16,18-nonaen-12-yl]-N′-[(3S)-1-(pyridin-2-ylcarbonyl)pyrrolidin-3-yl]urea bis(trifluoroacetate)] | ALK % of inhibition at a concentration of 500 nM or 1 mM [4, 10]: 5.8%
2.1 nM | 4.1 nM | 67 nM | 7.8 nM | – | – | – | – | – | N#Cc1cccc(NC(=O)Nc2ccc3cc2CCc2cccc(c2)Nc2ncc(Cl)c(n2)N3)c1 [Example B95, N-[6-Chloro-2,4,8,22-tetraazatetracyclo[14.3.1.1(3,7).1(9,13)]docosa-1(20), 3(22),4,6,9(21),10,12,16,18-nonaen-12-yl]-N′-(3-cyanophenyl)urea trifluoroacetate] | IC50 ([4]; Table B1, cells without percent sign): > 1000 nM
5 nM | 70 nM | > 400 nM | 42 nM | – | – | – | – | – | O=C(Nc1ccc2cc1CCc1cncc(c1)Nc1ncc(Cl)c(n1)N2)N1CCC(c2ccccc2)C1 (centres unmarked) [Example B312, N-[6-Chloro-2,4,8,18,22-pentaazatetracyclo[14.3.1.1(3,7).1(9,13)]docosa-1(20),3(22),4,6,9(21),10,12,16,18-nonaen-12-yl]-3-phenylpyrrolidine-1-carboxamide bis(trifluoroacetate)] | ALK % of inhibition at a concentration of 500 nM or 1 mM [4, 5]: 40%
9 nM | 17 nM | 76 nM | 19 nM | – | – | – | – | – | CC(C)C(=O)N1CC[C@H](NC(=O)Nc2ccc3cc2CCc2cccc(c2)Nc2ncc(Cl)c(n2)N3)C1 [Example B229, N-[6-Chloro-2,4,8,22-tetraazatetracyclo[14.3.1.1(3,7).1(9,13)]docosa-1(20),3(22),4,6,9(21),10,12,16,18-nonaen-12-yl]-N′-[(3S)-1-isobutyrylpyrrolidin-3-yl]urea trifluoroacetate] | ALK % of inhibition at a concentration of 500 nM or 1 mM [4, 10]: 6.5%
> 1000 nM | 281 nM | 231 nM | > 1000 nM | – | – | – | – | – | O=C(Nc1cccc(F)c1)Nc1cc2cc(c1)Nc1nc(ncc1Cl)Nc1cccc(c1)CC2 [Example B214, N-[6-Chloro-2,4,8,22-tetraazatetracyclo[14.3.1.1(3,7).1(9,13)]docosa-1(20),3(22),4,6,9(21),10,12,16,18-nonaen-11-yl]-N′-(3-fluorophenyl)urea trifluoroacetate] | ALK % of inhibition at a concentration of 500 nM or 1 mM [4, 10]: 39%
79 nM | > 400 nM | > 400 nM | > 400 nM | – | – | – | – | – | CC1CN(C(=O)Nc2ccc3cc2CCc2cncc(c2)Nc2ncc(Cl)c(n2)N3)CCN1c1ccccc1 (centres unmarked) [Example B320, N-[6-Chloro-2,4,8,18,22-pentaazatetracyclo[14.3.1.1(3,7).1(9,13)]docosa-1(20),3(22),4,6,9(21),10,12,16,18-nonaen-12-yl]-3-methyl-4-phenylpiperazine-1-carboxamide tris(trifluoroacetate)] | ALK % of inhibition at a concentration of 500 nM or 1 mM [4, 5]: 57%

Second part, the molecule before the results:

SMILES | IC50 ([1]; Table B1) | IC50 ([2]; Table B1) | IC50 ([3]; Table B1) | IC50 (TYK2; Table B1) | IC50 [1, 6] | IC50 [2, 7] | IC50 [3, 8] | IC50 (TYK2) | ALK % of inhibition at a concentration of 500 nM or 1 mM [4, 9] | also measured
NCCC(=O)Nc1ccc2cc1CCc1cccc(c1)Nc1ncc(Cl)c(n1)N2 [Example A108, 3-Amino-N-[6-chloro-2,4,8,22-tetraazatetracyclo[14.3.1.1(3,7).1(9,13)]docosa-1(20),3(22),4,6,9(21),10,12,16,18-nonaen-12-yl]propanamide bis(trifluoroacetate)] | – | – | – | – | 6 nM | 32 nM | 26 nM | 15 nM | 32% | –
O=C(Nc1ccc2cc1CCc1cccc(c1)Nc1ncc(Cl)c(n1)N2)C1CCCNC1 (centres unmarked) [Example A44, N-[6-Chloro-2,4,8,22-tetraazatetracyclo[14.3.1.1(3,7).1(9,13)]docosa-1(20), 3(22),4,6,9(21),10,12,16,18-nonaen-12-yl]piperidine-3-carboxamide bis(trifluoroacetate)] | – | – | – | – | 26 nM | 52 nM | 71 nM | 169 nM | 21% | –
O=C(CC1CCN(c2ccncc2F)CC1)Nc1ccc2cc1CCc1cncc(c1)Nc1ncc(Cl)c(n1)N2 [Example A243, N-[6-Chloro-2,4,8,18,22-pentaazatetracyclo[14.3.1.1(3,7).1(9,13)]docosa-1(20),3(22),4,6,9(21),10,12,16,18-nonaen-12-yl]-2-[1-(3-fluoropyridin-4-yl)piperidin-4-yl]acetamide tris(trifluoroacetate)] | – | – | – | – | 20 nM | 119 nM | > 400 nM | 235 nM | 38% | –
O=C(CNC(=O)Nc1ccccc1)Nc1ccc2cc1CCc1cccc(c1)Nc1ncc(Cl)c(n1)N2 [Example A66, 2-[(Anilinocarbonyl)amino]-N-[6-chloro-2,4,8,22-tetraazatetracyclo[14.3.1.1(3,7).1(9,13)]docosa-1(20),3(22),4,6,9(21),10,12,16,18-nonaen-12-yl]acetamide trifluoroacetate] | – | – | – | – | 9 nM | 3.1 nM | 6.2 nM | 21 nM | 26% | –
Cc1cccc(N2CCC(CC(=O)Nc3ccc4cc3CCc3cncc(c3)Nc3ncc(Cl)c(n3)N4)CC2)c1C#N [Example A236, N-[6-Chloro-2,4,8,18,22-pentaazatetracyclo[14.3.1.1(3,7).1(9,13)]docosa-1(20),3(22),4,6,9(21),10,12,16,18-nonaen-12-yl]-2-[1-(2-cyano-3-methylphenyl)piperidin-4-yl]acetamide tris(trifluoroacetate)] | – | – | – | – | 1.7 nM | 150 nM | > 400 nM | > 400 nM | 16% | –
O=S1(=O)CCOc2cccc(c2)Nc2ncc(Cl)c(n2)Nc2cccc1c2 [Example D14, 6-Chloro-17-oxa-14-thia-2,4,8,24-tetraazatetracyclo[16.3.1.1(3,7).1(9,13)]tetracosa-1(22),3(24),4,6,9(23),10,12,18,20-nonaene 14,14-dioxide trifluoroacetate] | – | – | – | – | – | – | – | – | – | IC50 ([1]; Table D1): 2.2 nM; IC50 ([2]; Table D1): 2.2 nM; IC50 ([3]; Table D1): 11 nM; IC50 (TYK2; Table D1): 5 nM; IC50 ([4]; Table D1, 90 μM ATP): 732 nM
C[N+]1(C)CCC(CC(=O)Nc2ccc3cc2CCc2cccc(c2)Nc2ncc(Cl)c(n2)N3)CC1 [Example A111, 4-(2-{[6-Chloro-2,4,8,22-tetraazatetracyclo[14.3.1.1(3,7).1(9,13)]docosa-1(20),3(22),4,6,9(21),10,12,16,18-nonaen-12-yl]amino}-2-oxoethyl)-1,1-dimethylpiperidinium bis(trifluoroacetate)] | – | – | – | – | 45 nM | 103 nM | 298 nM | 148 nM | 23% | –
Cc1ncsc1C(=O)N1CCC(CC(=O)Nc2ccc3cc2CCc2cncc(c2)Nc2ncc(Cl)c(n2)N3)CC1 [Example A216, N-[6-Chloro-2,4,8,18,22-pentaazatetracyclo[14.3.1.1(3,7).1(9,13)]docosa-1(20),3(22),4,6,9(21),10,12,16,18-nonaen-12-yl]-2-{1-[(4-methyl-1,3-thiazol-5-yl)carbonyl]piperidin-4-yl}acetamide bis(trifluoroacetate)] | – | – | – | – | 80 nM | > 200 nM | > 200 nM | > 200 nM | 29% | –
